Test results reported in patent US12564638B2 (SHANGHAITECH UNIVERSITY, priority 2019, dated 2026).
Like-named read-outs stand apart in the source and are kept apart here.

Tests used:
[1] = test system: PC9 cells (EGFR Exon 19 del, non-small cell lung cancer cells); experiment: Cell viability assay (WST/CCK8), PC9 cells; type: cell-based; conditions: Homo sapiens, PC-9, PC9 (Exon19 Del), 72 hours, read-out: IC50 (half inhibitory concentration)
How it was run: (§1)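 Plated 3 000 cells/well in complete RPMI1640 the day before dosing; controls were DMSO (negative) and EGFR TKIs (positive).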

[2] = test system: HCC827 cells (EGFR Exon19 del, non-small cell lung cancer cells); experiment: Cell viability assay (WST/CCK8), HCC827 cells; type: cell-based; conditions: Homo sapiens, HCC827, 72 h, HCC827 (Exon19 Del), 72 hours, read-out: IC50 (half inhibitory concentration)
How it was run: as §1

[3] = Table 6, canertinib-based compounds, WST

COc1cc2ncnc(Nc3ccc(F)c(Cl)c3)c2cc1NC(=O)/C=C/CN1CCC(N2CCN(C(=O)CCC(=O)NCCNc3cccc4c3C(=O)N(C3CCC(=O)NC3=O)C4=O)CC2)CC1 (stereo not shown) [SIAIS249104, (E)-N-(4-((3-chloro-4-fluorophenyl)amino)-7-methoxyquinazolin-6-yl)-4-(4-(4-(4-((2-((2-(2,6-dioxopiperidin-3-yl)-1,3-dioxoisoindolin-4-yl)amino)ethyl)amino)-4-oxobutanoyl)piperazin-1-yl)piperidin-1-yl)but-2-enamide]
IC50 ([1]; WST (CCK8)): 37.6 nM | IC50 ([2]; WST (CCK8)): 18.2 nM

COc1cc2ncnc(Nc3ccc(F)c(Cl)c3)c2cc1NC(=O)/C=C/CN1CCN(C(=O)CNc2cccc3c2CN(C2CCC(=O)NC2=O)C3=O)CC1 (stereo not shown) [SIAIS249056, (E)-N-(4-((3-chloro-4-fluorophenyl)amino)-7-methoxyquinazolin-6-yl)-4-(4-(2-((2-(2,6-dioxopiperidin-3-yl)-1-oxoisoindolin-4-yl)amino)acetyl)piperazin-1-yl)but-2-enamide]
IC50 ([1]; WST (CCK8)): 4 nM | IC50 ([2]; WST (CCK8)): 7.3 nM

COc1cc2ncnc(Nc3ccc(F)c(Cl)c3)c2cc1NC(=O)/C=C/CN1CCN(C(=O)CSc2cccc3c2CN(C2CCC(=O)NC2=O)C3=O)CC1 (stereo not shown) [SIAIS219185, (E)-N-(4-((3-chloro-4-fluorophenyl)amino)-7-methoxyquinazolin-6-yl)-4-(4-(2-((2-(2,6-dioxopiperidin-3-yl)-1-oxoisoindolin-4-yl)thio)acetyl)piperazin-1-yl)but-2-enamide]
IC50 ([1]; WST (CCK8)): 23.3 nM | IC50 ([2]; WST (CCK8)): 15.7 nM

COc1cc2ncnc(Nc3ccc(F)c(Cl)c3)c2cc1NC(=O)/C=C/CN1CCN(C(=O)CCOCCOCCC(=O)N[C@H](C(=O)N2C[C@H](O)C[C@H]2C(=O)NCc2ccc(-c3scnc3C)cc2)C(C)(C)C)CC1 [SIAIS249045, (2S,4R)-1-((S)-2-(3-(2-(3-(4-((E)-4-((4-((3-chloro-4-fluorophenyl)amino)-7-methoxyquinazolin-6-yl)amino)-4-oxobut-2-en-1-yl)piperazin-1-yl)-3-oxopropoxy)ethoxy)propanamido)-3,3-dimethylbutanoyl)-4-hydroxy-N-(4-(4-methylthiazol-5-yl)benzyl)pyrrolidine-2-carboxamide]
IC50 ([1]; WST (CCK8)): 691 nM | IC50 ([2]; WST (CCK8)): 41.9 nM

COc1cc2ncnc(Nc3ccc(F)c(Cl)c3)c2cc1NC(=O)/C=C/CN1CCC(N2CCN(C(=O)CCCCCCCCCSc3cccc4c3CN(C3CCC(=O)NC3=O)C4=O)CC2)CC1 (stereo not shown) [SIAIS337037, (E)-N-(4-((3-chloro-4-fluorophenyl)amino)-7-methoxyquinazolin-6-yl)-4-(4-(4-(10-((2-(2,6-dioxopiperidin-3-yl)-1-oxoisoindolin-4-yl)thio)decanoyl)piperazin-1-yl)piperidin-1-yl)but-2-enamide]
IC50 ([1]; WST (CCK8)): 0.7 nM | IC50 ([2]; WST (CCK8)): 0.3 nM

COc1cc2ncnc(Nc3ccc(F)c(Cl)c3)c2cc1NC(=O)/C=C/CN1CCN(C(=O)CCCCSc2cccc3c2CN(C2CCC(=O)NC2=O)C3=O)CC1 (stereo not shown) [SIAIS219188, (E)-N-(4-((3-chloro-4-fluorophenyl)amino)-7-methoxyquinazolin-6-yl)-4-(4-(5-((2-(2,6-dioxopiperidin-3-yl)-1-oxoisoindolin-4-yl)thio)pentanoyl)piperazin-1-yl)but-2-enamide]
IC50 ([1]; WST (CCK8)): 25.1 nM | IC50 ([2]; WST (CCK8)): 3.1 nM

COc1cc2ncnc(Nc3ccc(F)c(Cl)c3)c2cc1OCCCN1CCN(C(=O)COCCOCCOCCSc2cccc3c2C(=O)N(C2CCC(=O)NC2=O)C3=O)CC1 (stereo not shown) [SIAIS184169, 4-((2-(2-(2-(2-(4-(3-((4-((3-chloro-4-fluorophenyl)amino)-7-methoxyquinazolin-6-yl)oxy)propyl)piperazin-1-yl)-2-oxoethoxy)ethoxy)ethoxy)ethyl)thio)-2-(2,6-dioxopiperidin-3-yl)isoindoline-1,3-dione]
IC50 ([1]; Table 4, gefitinib-based compounds, WST): 318 nM | IC50 ([2]; Table 4, gefitinib and sapitinib-based compounds, WST): 22 nM

COc1cc2ncnc(Nc3ccc(F)c(Cl)c3)c2cc1NC(=O)/C=C/CN1CCN(C(=O)CCCCSc2cccc3c2C(=O)N(C2CCC(=O)NC2=O)C3=O)CC1 (stereo not shown) [SIAIS249037, (E)-N-(4-((3-chloro-4-fluorophenyl)amino)-7-methoxyquinazolin-6-yl)-4-(4-(5-((2-(2,6-dioxopiperidin-3-yl)-1,3-dioxoisoindolin-4-yl)thio)pentanoyl)piperazin-1-yl)but-2-enamide]
IC50 ([1]; WST (CCK8)): 28.7 nM | IC50 ([2]; WST (CCK8)): 6.6 nM

C=CC(=O)Nc1cc2c(Nc3ccc(F)c(Cl)c3)ncnc2cc1OCCCN1CCN(C(=O)CCOCCOCCOCCOCCC(=O)N[C@H](C(=O)N2C[C@H](O)C[C@H]2C(=O)NCc2ccc(-c3scnc3C)cc2)C(C)(C)C)CC1 [SIAIS262130, (2S,4R)-1-((S)-19-(4-(3-((6-acrylamido-4-((3-chloro-4-fluorophenyl)amino)quinazolin-7-yl)oxy)propyl)piperazin-1-yl)-2-(tert-butyl)-4,19-dioxo-7,10,13,16-tetraoxa-3-azanonadecanoyl)-4-hydroxy-N-(4-(4-methylthiazol-5-yl)benzyl)pyrrolidine-2-carboxamide]
IC50 [1, 3]: 179 nM | IC50 [2, 3]: 47.2 nM

COc1cc2ncnc(Nc3ccc(F)c(Cl)c3)c2cc1NC(=O)/C=C/CN1CCN(C(=O)CCCCNc2cccc3c2CN(C2CCC(=O)NC2=O)C3=O)CC1 (stereo not shown) [SIAIS249058, (E)-N-(4-((3-chloro-4-fluorophenyl)amino)-7-methoxyquinazolin-6-yl)-4-(4-(5-((2-(2,6-dioxopiperidin-3-yl)-1-oxoisoindolin-4-yl)amino)pentanoyl)piperazin-1-yl)but-2-enamide]
IC50 ([1]; WST (CCK8)): 9.9 nM | IC50 ([2]; WST (CCK8)): 5.5 nM

COc1cc2ncnc(Nc3ccc(F)c(Cl)c3)c2cc1NC(=O)/C=C/CN1CCN(C(=O)CCCCCSc2cccc3c2C(=O)N(C2CCC(=O)NC2=O)C3=O)CC1 (stereo not shown) [SIAIS249038, (E)-N-(4-((3-chloro-4-fluorophenyl)amino)-7-methoxyquinazolin-6-yl)-4-(4-(6-((2-(2,6-dioxopiperidin-3-yl)-1,3-dioxoisoindolin-4-yl)thio)hexanoyl)piperazin-1-yl)but-2-enamide]
IC50 ([1]; WST (CCK8)): 22.9 nM | IC50 ([2]; WST (CCK8)): 4.7 nM

COc1cc2ncnc(Nc3ccc(F)c(Cl)c3)c2cc1NC(=O)/C=C/CN1CCN(C(=O)CCCCNc2cccc3c2C(=O)N(C2CCC(=O)NC2=O)C3=O)CC1 (stereo not shown) [SIAIS249048, (E)-N-(4-((3-chloro-4-fluorophenyl)amino)-7-methoxyquinazolin-6-yl)-4-(4-(5-((2-(2,6-dioxopiperidin-3-yl)-1,3-dioxoisoindolin-4-yl)amino)pentanoyl)piperazin-1-yl)but-2-enamide]
IC50 ([1]; WST (CCK8)): 10.3 nM | IC50 ([2]; WST (CCK8)): 3.2 nM

COc1cc2ncnc(Nc3ccc(F)c(Cl)c3)c2cc1NC(=O)/C=C/CN1CCN(C(=O)CCOCCNc2cccc3c2C(=O)N(C2CCC(=O)NC2=O)C3=O)CC1 (stereo not shown) [SIAIS249046, (E)-N-(4-((3-chloro-4-fluorophenyl)amino)-7-methoxyquinazolin-6-yl)-4-(4-(3-(2-((2-(2,6-dioxopiperidin-3-yl)-1,3-dioxoisoindolin-4-yl)amino)ethoxy)propanoyl)piperazin-1-yl)but-2-enamide]
IC50 ([1]; WST (CCK8)): 57 nM | IC50 ([2]; WST (CCK8)): 3.4 nM

COc1cc2ncnc(Nc3ccc(F)c(Cl)c3)c2cc1NC(=O)/C=C/CN1CCN(C(=O)COCCSc2cccc3c2CN(C2CCC(=O)NC2=O)C3=O)CC1 (stereo not shown) [SIAIS219193, (E)-N-(4-((3-chloro-4-fluorophenyl)amino)-7-methoxyquinazolin-6-yl)-4-(4-(2-(2-((2-(2,6-dioxopiperidin-3-yl)-1-oxoisoindolin-4-yl)thio)ethoxy)acetyl)piperazin-1-yl)but-2-enamide]
IC50 ([1]; WST (CCK8)): 43.6 nM | IC50 ([2]; WST (CCK8)): 2.2 nM

COc1cc2ncnc(Nc3ccc(F)c(Cl)c3)c2cc1NC(=O)/C=C/CN1CCN(C(=O)CCCCCNc2cccc3c2C(=O)N(C2CCC(=O)NC2=O)C3=O)CC1 (stereo not shown) [SIAIS249049, (E)-N-(4-((3-chloro-4-fluorophenyl)amino)-7-methoxyquinazolin-6-yl)-4-(4-(6-((2-(2,6-dioxopiperidin-3-yl)-1,3-dioxoisoindolin-4-yl)amino)hexanoyl)piperazin-1-yl)but-2-enamide]
IC50 ([1]; WST (CCK8)): 16 nM | IC50 ([2]; WST (CCK8)): 4.6 nM

COc1cc2ncnc(Nc3ccc(F)c(Cl)c3)c2cc1NC(=O)/C=C/CN1CCC(N2CCN(C(=O)CCN3CCN(CCC(=O)N[C@H](C(=O)N4C[C@H](O)C[C@H]4C(=O)NCc4ccc(-c5scnc5C)cc4)C(C)(C)C)CC3)CC2)CC1 [SIAIS249105, (2S,4R)-1-((S)-2-(3-(4-(3-(4-(1-((E)-4-((4-((3-chloro-4-fluorophenyl)amino)-7-methoxyquinazolin-6-yl)amino)-4-oxobut-2-en-1-yl)piperidin-4-yl)piperazin-1-yl)-3-oxopropyl)piperazin-1-yl)propanamido)-3,3-dimethylbutanoyl)-4-hydroxy-N-(4-(4-methylthiazol-5-yl)benzyl)pyrrolidine-2-carboxamide]
IC50 ([1]; WST (CCK8)): 60.5 nM | IC50 ([2]; WST (CCK8)): 54.3 nM

COc1cc2ncnc(Nc3ccc(F)c(Cl)c3)c2cc1NC(=O)/C=C/CN1CCN(C(=O)COCCOCCSc2cccc3c2C(=O)N(C2CCC(=O)NC2=O)C3=O)CC1 (stereo not shown) [SIAIS262005, (E)-N-(4-((3-chloro-4-fluorophenyl)amino)-7-methoxyquinazolin-6-yl)-4-(4-(2-(2-(2-((2-(2,6-dioxopiperidin-3-yl)-1,3-dioxoisoindolin-4-yl)thio)ethoxy)ethoxy)acetyl)piperazin-1-yl)but-2-enamide]
IC50 ([1]; WST (CCK8)): 84 nM | IC50 ([2]; WST (CCK8)): 66.9 nM
